The target of assay [1] is Sigma-2 receptor (TMEM97) (Rattus norvegicus). Nature of the assay: Binding affinity was measured on Sigma receptor type 2 with rat liver membranes and [3H]- DTG as ligand.
Assay [2] has as its target Sigma non-opioid intracellular receptor 1 (Cavia porcellus) (UniProt Q60492). Nature of the assay: Binding affinity was measured on Sigma receptor type 1 with guinea pig membranes and [3H]- pentazocine as ligand.

The source of these data is BindingDB's records for doi:10.1021/jm991079p (University of Heidelberg, 2000).

As usually defined, the Ki is a measure of affinity in units of concentration, obtained from inhibition or displacement. Lower therefore signals a stronger hold on the target.

Chain of Sigma non-opioid intracellular receptor 1 (Cavia porcellus) (Q60492 whole entry, looked up): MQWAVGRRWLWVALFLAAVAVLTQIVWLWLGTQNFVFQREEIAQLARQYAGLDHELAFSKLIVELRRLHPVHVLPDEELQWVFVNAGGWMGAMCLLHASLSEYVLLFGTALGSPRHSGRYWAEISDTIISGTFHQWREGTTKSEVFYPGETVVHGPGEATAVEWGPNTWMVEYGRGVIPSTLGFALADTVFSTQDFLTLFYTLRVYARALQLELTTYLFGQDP

As to `CCN(CC)CCNC(=O)c1cc(I)c(N)cc1OC`, the Ki stood at 21400 nM in assay [1] and 484 nM in assay [2].

As for `CCN(CC)CCNC(=O)c1cc(Br)c(N)c(I)c1OC` [4-Amino-5-bromo-N-(2-diethylamino-ethyl)-3-iodo-2-methoxy-benzamide], the results for the Ki in assay [1] and in assay [2] were 2350 nM and 278 nM, respectively.

Take `CCN(CC)CCNC(=O)c1cc(I)c(NC(C)=O)cc1OC` [4-acetamido-N-(2-(diethylamino)ethyl)-5-iodo-2-methoxybenzamide]: the Ki came out at 115000 nM in assay [1] and 5190 nM in assay [2].

`CCN(CC)CCNC(=O)c1ccc(OC)c(I)c1` [N-(2-Diethylamino-ethyl)-3-iodo-4-methoxy-benzamide (IMBA)]: the Ki in assay [1] stood at 6520 nM; in assay [2] it was 249 nM.

Take `CCN(CC)CCNC(=O)c1cc(I)ccc1OC` [N-(2-Diethylamino-ethyl)-5-iodo-2-methoxy-benzamide]: the figures for the Ki in assay [1] and in assay [2] were 1020 nM and 92 nM, respectively.
